US10836725B2, “Modulators of the integrated stress pathway” (Calico Life Sciences LLC, priority 2016, dated 2020)

System: ATF4 luciferase reporter
Assay: ATF4-Luc assay in HEK293T cells carrying the ATF4 luciferase reporter (in vitro model of VWMD)
Type: cell-based, human
Conditions: Homo sapiens, HEK-293T, 1 μg/mL tunicamycin, 7 hours, luminescence (One Glo)
In short: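 Reporter cells were stably generated by retroviral transduction and puromycin selection, then seeded at 30,000 cells/well. Next day, cells received 1 μg/mL tunicamycin with 200 nM test compound for 7 h, and luciferase luminescence was read with a one-step reagent. Values reported as EC50.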

EC50 [nM] | SMILES
> 2000 | O=C(COc1ccc(Cl)c(F)c1)NC12CC(C(=O)NCc3nnc4n3CCCC4)(C1)C2 [Compound 223, 3-[2-(4-chloro-3-fluorophenoxy)acetamido]-N-[(5,6,7,8-tetrahydro[1,2,4]triazolo[4,3-a]pyridin-3-yl)methyl]bicyclo[1.1.1]pentane-1-carboxamide]
> 2000 | O=C(COc1ccc(Cl)c(F)c1)NC12CC(C(=O)NCc3ccccn3)(C1)C2 [Compound 224, 3-[2-(4-chloro-3-fluorophenoxy)acetamido]-N-[(pyridin-2-yl)methyl]bicyclo[1.1.1]pentane-1-carboxamide]
> 2000 | O=C(COc1ccc(Cl)c(F)c1)NC12CC(C(=O)NCc3ccc(OC(F)(F)F)cc3)(C1)C2 [Compound 225, 3-[2-(4-chloro-3-fluorophenoxy)acetamido]-N-{[4-(trifluoromethoxy)phenyl]methyl}bicyclo[1.1.1]pentane-1-carboxamide]
> 2000 | N#Cc1ccc(CNC(=O)C23CC(NC(=O)COc4ccc(Cl)c(F)c4)(C2)C3)cn1 [Compound 226, 3-[2-(4-chloro-3-fluorophenoxy)acetamido]-N-[(6-cyanopyridin-3-yl)methyl]bicyclo[1.1.1]pentane-1-carboxamide]
> 2000 | CC(C)c1ccc(CNC(=O)C23CC(NC(=O)COc4ccc(Cl)c(F)c4)(C2)C3)cc1 [Compound 227, 3-[2-(4-chloro-3-fluorophenoxy)acetamido]-N-{[4-(propan-2-yl)phenyl]methyl}bicyclo[1.1.1]pentane-1-carboxamide]
> 2000 | Cc1cnc(CNC(=O)C23CC(NC(=O)COc4ccc(Cl)c(F)c4)(C2)C3)cn1 [Compound 228, 3-[2-(4-chloro-3-fluorophenoxy)acetamido]-N-[(5-methylpyrazin-2-yl)methyl]bicyclo[1.1.1]pentane-1-carboxamide]
> 2000 | COCc1ccc(CNC(=O)C23CC(NC(=O)COc4ccc(Cl)c(F)c4)(C2)C3)cc1 [Compound 229, 3-[2-(4-chloro-3-fluorophenoxy)acetamido]-N-{[4-(methoxymethyl)phenyl]methyl]bicyclo[1.1.1]pentane-1-carboxamide]
> 2000 | CCc1csc(CCNC(=O)C23CC(NC(=O)COc4ccc(Cl)c(F)c4)(C2)C3)n1 [Compound 230, 3-[2-(4-chloro-3-fluorophenoxy)acetamido]-N-[2-(4-ethyl-1,3-thiazol-2-yl)ethyl]bicyclo[1.1.1]pentane-1-carboxamide]
> 2000 | O=C(COc1ccc(Cl)c(F)c1)NC12CC(C(=O)NCc3cc(F)cc(C(F)(F)F)c3)(C1)C2 [Compound 231, 3-[2-(4-chloro-3-fluorophenoxy)acetamido]-N-{[3-fluoro-5-(trifluoromethyl)phenyl]methyl}bicyclo[1.1.1]pentane-1-carboxamide]
> 2000 | COc1cccc(CNC(=O)C23CC(NC(=O)COc4ccc(Cl)c(F)c4)(C2)C3)n1 [Compound 232, 3-[2-(4-chloro-3-fluorophenoxy)acetamido]-N-[(6-methoxypyridin-2-yl]methyl]bicyclo[1.1.1]pentane-1-carboxamide]
> 2000 | O=C(COc1ccc(Cl)c(F)c1)NC12CC(C(=O)NCc3ccncc3)(C1)C2 [Compound 233, 3-[2-(4-chloro-3-fluorophenoxy)acetamido]-N-[(pyridin-4-yl]methyl]bicyclo[1.1.1]pentane-1-carboxamide]
> 2000 | O=C(COc1ccc(Cl)c(F)c1)NC12CC(C(=O)NCCc3ccncc3)(C1)C2 [Compound 234, 3-[2-(4-chloro-3-fluorophenoxy)acetamido]-N-[2-(pyridin-4-yl)ethyl]bicyclo[1.1.1]pentane-1-carboxamide]
> 2000 | O=C(COc1ccc(Cl)c(F)c1)NC12CC(C(=O)NCc3ccon3)(C1)C2 [Compound 235, 3-[2-(4-chloro-3-fluorophenoxy)acetamido]-N-[(1,2-oxazol-3-yl]methyl]bicyclo[1.1.1]pentane-1-carboxamide]
> 2000 | COc1ccc(OC)c(CNC(=O)C23CC(NC(=O)COc4ccc(Cl)c(F)c4)(C2)C3)c1 [Compound 236, 3-[2-(4-chloro-3-fluorophenoxy)acetamido]-N-[(2,5-dimethoxyphenyl]methyl]bicyclo[1.1.1]pentane-1-carboxamide]
> 2000 | O=C(COc1ccc(Cl)c(F)c1)NC12CC(C(=O)NCc3cccc(F)c3)(C1)C2 [Compound 237, 3-[2-(4-chloro-3-fluorophenoxy)acetamido]-N-[(3-fluorophenyl)methyl]bicyclo[1.1.1]pentane-1-carboxamide]
> 2000 | CCCCc1ccc(CNC(=O)C23CC(NC(=O)COc4ccc(Cl)c(F)c4)(C2)C3)cc1 [Compound 238, N-[(4-butylphenyl)methyl]-3-[2-(4-chloro-3-fluorophenoxy)acetamido]bicyclo[1.1.1]pentane-1-carboxamide]
> 2000 | O=C(COc1ccc(Cl)c(F)c1)NC12CC(C(=O)NCCc3ccc(F)cc3)(C1)C2 [Compound 239, 3-[2-(4-chloro-3-fluorophenoxy)acetamido]-N-[2-(4-fluorophenyl)ethyl]bicyclo[1.1.1]pentane-1-carboxamide]
> 2000 | CCOc1ccc(CNC(=O)C23CC(NC(=O)COc4ccc(Cl)c(F)c4)(C2)C3)cc1 [Compound 240, 3-[2-(4-chloro-3-fluorophenoxy)acetamido]-N-[(4-ethoxyphenyl)methyl]bicyclo[1.1.1]pentane-1-carboxamide]
> 2000 | O=C(COc1ccc(Cl)c(F)c1)NC12CC(C(=O)NCc3ccc(Cl)c(Cl)c3)(C1)C2 [Compound 241, 3-[2-(4-chloro-3-fluorophenoxy)acetamido]-N-[(3,4-dichlorophenyl]methyl]bicyclo[1.1.1]pentane-1-carboxamide]
> 2000 | O=C(COc1ccc(Cl)c(F)c1)NC12CC(C(=O)NCCc3cccnc3)(C1)C2 [Compound 242, 3-[2-(4-chloro-3-fluorophenoxy)acetamido]-N-[2-(pyridin-3-yl)ethyl]bicyclo[1.1.1]pentane-1-carboxamide]
> 2000 | O=C(COc1ccc(Cl)c(F)c1)NC12CC(C(=O)NCc3ccccc3OC(F)F)(C1)C2 [Compound 243, 3-[2-(4-chloro-3-fluorophenoxy)acetamido]-N-{[2-(difluoromethoxy)phenyl]methyl}bicyclo[1.1.1]pentane-1-carboxamide]
> 2000 | Cc1occc1CNC(=O)C12CC(NC(=O)COc3ccc(Cl)c(F)c3)(C1)C2 [Compound 244, 3-[2-(4-chloro-3-fluorophenoxy)acetamido]-N-[(2-methylfuran-3-yl)methyl]bicyclo[1.1.1]pentane-1-carboxamide]
> 2000 | O=C(COc1ccc(Cl)c(F)c1)NC12CC(C(=O)NCc3ccc(F)cc3)(C1)C2 [Compound 245, 3-[2-(4-chloro-3-fluorophenoxy)acetamido]-N-[(4-fluorophenyl)methyl]bicyclo[1.1.1]pentane-1-carboxamide]
> 2000 | O=C(COc1ccc(Cl)c(F)c1)NC12CC(C(=O)NCc3ccc(SC(F)(F)F)cc3)(C1)C2 [Compound 246, 3-[2-(4-chloro-3-fluorophenoxy)acetamido]-N-({4-[(trifluoromethyl)sulfanyl]phenyl}methyl)bicyclo[1.1.1]pentane-1-carboxamide]
> 2000 | CCCc1cc(CNC(=O)C23CC(NC(=O)COc4ccc(Cl)c(F)c4)(C2)C3)on1 [Compound 247, 3-[2-(4-chloro-3-fluorophenoxy)acetamido]-N-[(3-propyl-1,2-oxazol-5-yl)methyl]bicyclo[1.1.1]pentane-1-carboxamide]
> 2000 | COc1ccc(CCNC(=O)C23CC(NC(=O)COc4ccc(Cl)c(F)c4)(C2)C3)cc1Cl [Compound 248, 3-[2-(4-chloro-3-fluorophenoxy)acetamido]-N-[2-(3-chloro-4-methoxyphenyl)ethyl]bicyclo[1.1.1]pentane-1-carboxamide]
> 2000 | COc1ccc(CNC(=O)C23CC(NC(=O)COc4ccc(Cl)c(F)c4)(C2)C3)cc1Cl [Compound 249, 3-[2-(4-chloro-3-fluorophenoxy)acetamido]-N-[(3-chloro-4-methoxyphenyl)methyl]bicyclo[1.1.1]pentane-1-carboxamide]
> 2000 | O=C(COc1ccc(Cl)c(F)c1)NC12CC(C(=O)NCc3cccc(OC(F)F)c3)(C1)C2 [Compound 250, 3-[2-(4-chloro-3-fluorophenoxy)acetamido]-N-{[3-(difluoromethoxy)phenyl]methyl}bicyclo[1.1.1]pentane-1-carboxamide]
> 2000 | Cc1ccc(CNC(=O)C23CC(NC(=O)COc4ccc(Cl)c(F)c4)(C2)C3)c(C)n1 [Compound 251, 3-[2-(4-chloro-3-fluorophenoxy)acetamido]-N-[(2,6-dimethylpyridin-3-yl)methyl]bicyclo[1.1.1]pentane-1-carboxamide]
> 2000 | O=C(COc1ccc(Cl)c(F)c1)NC12CC(C(=O)NCCn3cccn3)(C1)C2 [Compound 252, 3-[2-(4-chloro-3-fluorophenoxy)acetamido]-N-[2-(1H-pyrazol-1-yl)ethyl]bicyclo[1.1.1]pentane-1-carboxamide]
